This note sets out measurements from patent US7601688B2, “Methods of reducing hypoglycemic episodes in the treatment of diabetes mellitus” (Biocon Limited, priority 2001, dated 2009).

A short description of data set [1]: Dose titration study of oral HIM2 vs. insulin lispro: glucodynamics. It is filed as in vivo, human. Conditions: adult type 1 diabetes patients; for Day 3 - 2 Hour Post-prandial Glucose, Breakfast (Mean ± SEM) / Day 3 - 2 Hour Post-prandial Glucose, Dinner (Mean ± SEM) / Day 3 - 2 Hour Post-prandial Glucose, Evening Snack (Mean ± SEM) / Day 3 - 2 Hour Post-prandial Glucose, Lunch (Mean ± SEM): basal CSII, HIM2 p.o., Lispro s.c., titrated doses; for Day 3 - 2 Hour Post-prandial Glucose, Breakfast (Mean ± SEM): after breakfast, p = 0.28; for Day 3 - 2 Hour Post-prandial Glucose, Dinner (Mean ± SEM): after dinner, p = 0.07; for Day 3 - 2 Hour Post-prandial Glucose, Evening Snack (Mean ± SEM): after evening snack, p = 0.24; for Day 3 - 2 Hour Post-prandial Glucose, Lunch (Mean ± SEM): after lunch, p = 0.29; for Day 3 - Daily Mean (±SEM) Plasma Glucose AUC: total 24-hour AUC divided by 1440 (time-adjusted), p = 0.46; for Patients with average 2-hour post-prandial glucose levels consistent with pre-study values (range 80-250 mg/dL): Fisher's exact test p=0.42. As to the method:
A 3-day inpatient dosing period was performed.
Assays: Plasma glucose: glucose oxidase-based enzymatic assay. Plasma insulin: RIA method (Linco Research, St. Charles, Mo.). […] (2) Daily mean plasma glucose on Day 3. (3) Postprandial glucose at 2 hours during Day 3. (4) Number of rescue interventions (hypoglycemia).

For data set [2] the following is noted: in vivo.
Experimental: Study Objectives: To evaluate whether HIM2 doses, when titrated, are able to maintain 2-hour post-prandial blood glucose levels consistent with the pre-study range between 80-250 mg/dL as compared to insulin lispro and to evaluate the safety profile for HIM2. Patient Population: Adult patients with type 1 diabetes participated in the study. […] Design and Methods: A multicenter, dose titration, randomized, insulin lispro controlled, parallel, open-label study was conducted. A 2-day inpatient period was provided to establish optimal basal rate. A 5-7 day run-in period (maintained optimized basal rate; insulin requirements, episodes of hypoglycemia or hyperglycemia, dietary intake and physical activity recorded) was provided. A 3-day inpatient dosing period was performed. Carbohydrate intake was individualized (40% of total calories, equally divided among 4 meals during each study day). Basal insulin (CSII) was unchanged throughout the 3-day dosing period. Initial Doses: HIM2 0.25 mg/kg (7.2 U/kg; 1 mg of insulin=28.7 units of insulin), p.o., in a formulation shown in Table 1, 10 minutes prior to meal, HIM2 0.125 mg/kg (3.6 U/kg; 1 mg of insulin=28.7 units of insulin), p.o., in a formulation shown in Table 1, 120 minutes post meal, and Insulin lispro (commercially available from Eli Lilly & Co., Indianapolis, Ind.) (hereinafter “Lispro”), 0.1 U/kg (0.003 mg/kg; 1 mg of insulin=28.7 units of insulin), s.c., 15 minutes prior to meal. Doses were adjusted as necessary with the next scheduled dose according to the dose titration rules described in Table 2; however, no dose titration was allowed during study day 3.
Assays: Plasma glucose: glucose oxidase-based enzymatic assay. Plasma insulin: RIA method (Linco Research, St. Charles, Mo.). Efficacy Variables: The following variables were evaluated to determine efficacy of HIM2 compared to Lispro. (1) Percentage of patients able to maintain 2-hour postprandial blood glucose levels consistent with pre-study values between 80-250 mg/dL on Day 3 (HIM2 compared to insulin lispro). (2) Daily mean plasma glucose on Day 3. (3) Postprandial glucose at 2 hours during Day 3. (4) Number of rescue interventions (hypoglycemia). Safety Variables: Adverse events, vital signs, clinical chemistry, hematology, urinalysis, and ECG monitoring. Data Analysis: A comparison of proportion of patients within target glucose range (80-250 mg/dL) was analyzed. The daily mean plasma glucose AUC was analyzed using a t-test. The Day 3-2 hour post-prandial glucose was analyzed using a t-test. Comparison of rates for hypoglycemic events was analyzed using glucose 50-60 mg/dL, glucose ≦50 mg/mL, and number of rescue interventions. Demographics: A total of 31 patients were enrolled and analyzed in this study (15 M/16 F).

On to Insulin lispro [reference compound], for which, in data set [1], the “Day 3 - 2 Hour Post-prandial Glucose, Breakfast (Mean ± SEM)” value turned out to be 158.2 ± 24.3; the “Day 3 - 2 Hour Post-prandial Glucose, Dinner (Mean ± SEM)” value was 195.3 ± 20.6; the “Day 3 - 2 Hour Post-prandial Glucose, Evening Snack (Mean ± SEM)” value was 197.9 ± 20.4; the “Day 3 - 2 Hour Post-prandial Glucose, Lunch (Mean ± SEM)” value is 202.6 ± 16.1. In data set [1], the “Day 3 - Daily Mean (±SEM) Plasma Glucose AUC” value was determined as 170.6 ± 11.8 mg/dL and the “Patients with average 2-hour post-prandial glucose levels consistent with pre-study values (range 80-250 mg/dL)” value was determined as 83%.

Take “Lys^B29-Hexyl-PEG7-Oligomer-Conjugated Insulin [HIM2]”: in data set [2], the “Documented serious adverse event for hypoglycemia” value is recorded as “One”; the “Hypoglycemic events that required rescue intervention” value is listed as “significantly lower”; the “Number and frequency of gastrointestinal side effects (primarily unpleasant taste and diarrhea)” value is recorded as “occurred more frequently”; the “Number of hypoglycemic events (overall assessment)” value is given as “trend toward fewer events”. Moreover, in data set [1], the “Day 3 - 2 Hour Post-prandial Glucose, Breakfast (Mean ± SEM)” value was 192.3 ± 19.4; the “Day 3 - 2 Hour Post-prandial Glucose, Dinner (Mean ± SEM)” value worked out at 249.0 ± 19.3; the “Day 3 - 2 Hour Post-prandial Glucose, Evening Snack (Mean ± SEM)” value was 231.4 ± 18.4; the “Day 3 - 2 Hour Post-prandial Glucose, Lunch (Mean ± SEM)” value worked out at 232.9 ± 21.0. In addition, in data set [1], the “Day 3 - Daily Mean (±SEM) Plasma Glucose AUC” value is listed as 182.0 ± 10.0 mg/dL and the “Patients with average 2-hour post-prandial glucose levels consistent with pre-study values (range 80-250 mg/dL)” value was 63%.
